The target of experiment [1] is T1, uric acid-xanthine/H+ symporter (UapA) (Emericella nidulans, UniProt Q07307, G411V).
T1 construct: made in house; host or cells: Saccharomyces cerevisiae FGY217
The experiment is described as follows: UapA extraction and thermal stability by fluorescence size exclusion chromatography (FSEC). To be noted: 1.0 wt % amphiphile; for Retention of monodispersed UapA-GFP peak after heating (FSEC): 10 minutes at 40° C., compared with DDM. Details: species or system Aspergillus nidulans. As for the experimental part: An experiment for measuring the structural stability of uric acid-xanthine/H+ symporter (UapA) isolated from Aspergillus nidulans using NBMs was performed. The structural stability of UapA was evaluated using […].
Specifically, UapAG411VΔ1-11 (hereinafter, referred to as “UapA”) was expressed as GFP fusion in Saccharomyces cerevisiae FGY217 strain and isolated in a sample buffer (20 mM Tris (pH 7.5), 150 mM NaCl, 0.03% DDM, 0.6 mM xanthine) according to the method described in the literature written by J. Leung et al. (Mol. Membr. Biol. 2013, 30, 32-42). Membranes containing UapA were resuspended in PBS, 10 mM imidazole pH 8.0, 150 mM NaCl, 10% glycerol, and the protein concentration was measured. The membranes were adjusted to a concentration of 1 mg·ml^−1 and 1 ml aliquots were individually incubated with DDM or NBMs at a final amphiphilic material concentration of 1.0 wt % for 10 minutes at 40° C. 100 μl aliquots were removed from each tube, and a fluorescence reading was taken for each sample before and after ultracentrifugation at 150,000 g for 10 minutes to remove insoluble material. The remaining soluble fraction for each condition was submitted to fluorescent size exclusion chromatography (FSEC) using a Superose 6 column (GE Healthcare) equilibrated with DDM.

Experiment [2] has as its target T2, Salmonella typhimurium melibiose permease (MelBSt) (Salmonella typhimurium, UniProt P30878).
T2 construct: made in house; host or cells: E. coli DW2 (ΔmelB, ΔlacZY)
Description: MelBSt extraction and thermostability (SDS-PAGE / western blotting). The note with it: 1.5 wt %, elevated temperature. As to the method:
An experiment of measuring structural stability of MelBSt (Salmonella typhimurium melibiose permease) protein with NBMs was carried out. The MelBSt protein was extracted from the membrane using NBMs or DDM, and the amounts and structure of the extracted proteins were analyzed by SDS-PAGE and western blotting. The concentration of the used amphiphilic compound was 1.5 wt %. The proteins were extracted at four temperatures (0, 45, 55, and 65° C.) and incubated at the same temperature for 90 minutes, and the amounts of the remaining proteins solubilized in an aqueous solution were measured, so as to simultaneously evaluate both performances of the compound such as protein extraction efficiency and stabilization activity. The amounts of the proteins extracted and stabilized by respective amphiphilic molecules were represented as relative values (%) to the amounts of total proteins contained in the membrane sample not treated with an amphiphilic molecule.
Specifically, Salmonella typhimurium melibiose permease (MelBSt) with a C-terminal 10-His tag was expressed in E. coli DW2 cells (^ΔmelB and ^ΔlacZY) using plasmid pK95^ΔAHB/WT MelBSt/CH10. Cell growth and membrane preparation were carried out according to the method described in the literature written by A. S. Ethayathulla et al. (Nat. Commun. 2014, 5, 3009). Protein assays were carried out with a Micro BCA kit (Thermo Scientific, Rockford, Ill.). The measurement of MelBSt stability was carried out on NBMs or DDM according to the protocol described by P. S. Chae et al. (Nat. Methods 2010, 7, 1003-1008). Membrane samples containing MelBSt (final protein concentration was 10 mg/mL) were incubated with a solubilization buffer (20 mM sodium phosphate, pH 7.5, 200 mM NaCl, 10% glycerol, 20 mM melibiose) and 1.5% (w/v) of DDM or NBMs (X-NBM-C10, D-NBM-C10, X-NBM-C11 or D-NBM-C11) at four different temperatures (0, 45, 55, 65° C.) for 90 minutes. To remove insoluble materials, following ultracentrifugation at 355,590 g using a Beckman Optimal™ MAX ultracentrifuge with TLA-100 rotor for 45 minutes at 4° C. was performed, and 20 μg of each protein sample was separated by SDS-16% PAGE, and then immunoblotted with a Penta-His-HRP antibody (Qiagen, Germantown, Md.). MelBSt was detected using SuperSignal West Pico chemiluminescent substrate by an ImageQuant LAS 4000 Biomolecular Imager (GE Health Care Life Science).
On the technique in general: Immunoblotting shows a protein as a band on a membrane.

The target in the next experiment is β2AR-Gs complex (Homo sapiens, UniProt P07550). The experiment is described as follows: Negative stain EM analysis of β2AR-Gs complex. As to the method: A β2AR-Gs protein complex was prepared for electron microscopy using the conventional negative staining protocol, and imaged at room temperature with a Tecnai T12 electron microscope operated at 120 kV using low-dose procedures. Images were recorded at a magnification of 71,138× and a defocus value of approximately 1.4μ using a Gatan US4000 CCD camera. All images were binned (2×2 pixels) to obtain a pixel size of 4.16 A at the specimen level. Particles were manually excised using e2boxer (part of the EMAN2 software suite). 2D reference-free alignment and classification of particle projections were performed using ISAC. 14,556 projections of β2AR-Gs were subjected to ISAC, producing 199 classes consistent over two-way matching and accounting for 10,100 particle projections.

The next experiment deals with mBBr-β2AR (Homo sapiens, UniProt P07550). Description: Gs-protein coupling assay, bimane fluorescence of mBBr-β2AR. The note with it: 0.1% amphiphile, 2 μM ISO, 250 nM Gs. As for the experimental part: To investigate a protein function, the receptor was conjugated with a fluorophore (monobromobimane; mBBr). The mBBr-β2AR was used to monitor the conformational changes of the receptor in the presence of binding partners (isopreoterenol (ISO) and Gs-protein) through fluorescence measurement, and detailed experimental methods are as follows.
0.5 μl undispersed mBBr-labeled receptor at 50 μM in DDM was diluted with 500 μl 0.1% NBM or DDM-containing buffer, and incubated for 15 minutes at room temperature, thereby obtaining a receptor having a final concentration of 50 nM. 2 μM isoproterenol (ISO) was added and the resulting solution was further incubated for 15 minutes at room temperature. After addition of 250 nM Gs, the protein samples were further incubated at room temperature for 20 minutes. Bimane fluorescence was measured by excitation at 370 nm, and emission spectra were recorded from 430 nm to 510 nm in a unit of 1 nm increments with 0.5 nm/s integration on a Spex FluoroMax-3 spectrofluorometer (Jobin Yvon Inc.) in photon counting mode set at 4-nm emission bandwidth pass. The mBBr response in 0.1% DDM was used as a positive control.

Molecules are shown by their SMILES.

Take `CCCCCCCCCCCOCC1C2CC([C@@H]1COCCCCCCCCCCC)[C@H](O[C@@H]1OC(CO)[C@@H](O[C@H]3OC(CO)[C@@H](O)C(O)C3O)C(O)C1O)C2O[C@@H]1OC(CO)[C@@H](O[C@H]2OC(CO)[C@@H](O)C(O)C2O)C(O)C1O` (stereo partly drawn) [D-NBM-C11]: the “Retention of monodispersed UapA-GFP peak after heating (FSEC)” value in experiment [1] was “a little better than DDM”. The “MelBSt membrane protein stabilization activity (overall)” value in experiment [2] is “excellent membrane protein stabilization activity”.
Turning to `CCCCCCCCCCCOCC1C2CC([C@H]1COCCCCCCCCCCC)[C@H](O[C@@H]1OC(CO)[C@@H](O[C@H]3OC(CO)[C@@H](O)C(O)C3O)C(O)C1O)C2O[C@@H]1OC(CO)[C@@H](O[C@H]2OC(CO)[C@@H](O)C(O)C2O)C(O)C1O` (stereo partly drawn) [X-NBM-C11], in experiment [1], the “UapA extraction efficiency from the cell membrane” value was “almost quantitatively extract” and the “Retention of monodispersed UapA-GFP peak after heating (FSEC)” value is “substantially better than DDM”. The “Particle dispersity of β2AR-Gs complex in negative stain EM” value at β2AR-Gs complex is recorded as “highly mono-dispersed particles”. The “Conformational change / function of mBBr-β2AR with ISO and Gs” value on mBBr-β2AR is reported as “retains an original protein function”.

(Values after US11279726B2, “Norbornene-based amphipathic compound and utilization thereof” (Industry-University Cooperation Foundation Hanyang …, priority 2017, dated 2022).)
